ChEMBL document CHEMBL4265967, “Design, synthesis, and evaluation of carboxyl-modified oseltamivir derivatives with improved lipophilicity as neuraminidase inhibitors” (Bioorg Med Chem Lett, 2018)

What was measured:
[1] = target: Neuraminidase (Influenza A virus) (UniProt B4URF0); details: A/Anhui/2005(H5N1), at 1 µM
[2] = target: Neuraminidase (Influenza A virus) (UniProt B4URF0); details: A/Anhui/2005(H5N1), at 10 µM
in vitro [3] = details: human, liver microsomes
in vitro [4] = details: human, liver microsomes; remark: listed apart in the source
in vitro [5] = details: human, liver microsomes; remark: listed apart in the source
in vitro [6] = details: human, liver microsomes; remark: listed apart in the source
in vitro [7] = details: human, liver microsomes; remark: listed apart in the source
in vitro [8] = details: human, liver microsomes; remark: listed apart in the source
Neuraminidase = Neuraminidase (Influenza A virus, UniProt B4URF0); parameters: species or system A/Anhui/2005(H5N1)
Neuraminidase, sequence (B4URF0 whole entry): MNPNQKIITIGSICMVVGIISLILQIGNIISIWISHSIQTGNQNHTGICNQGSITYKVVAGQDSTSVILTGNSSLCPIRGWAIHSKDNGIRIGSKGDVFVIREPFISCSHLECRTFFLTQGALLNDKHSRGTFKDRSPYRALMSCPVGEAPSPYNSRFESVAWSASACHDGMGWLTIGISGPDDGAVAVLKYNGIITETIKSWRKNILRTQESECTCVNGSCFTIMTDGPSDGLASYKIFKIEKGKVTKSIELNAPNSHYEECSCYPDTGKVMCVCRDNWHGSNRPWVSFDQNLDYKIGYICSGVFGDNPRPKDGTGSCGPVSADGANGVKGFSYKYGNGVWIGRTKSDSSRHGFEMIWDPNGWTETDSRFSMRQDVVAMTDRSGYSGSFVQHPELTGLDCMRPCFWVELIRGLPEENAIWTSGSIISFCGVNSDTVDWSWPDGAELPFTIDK

[9] = Octanol-phosphate buffered saline partition coefficient, log D of compound at pH 6.8 at 1 mg after 24 hrs by HPLC analysis; assay type: physicochemical
[10] = Octanol-phosphate buffered saline partition coefficient, log D of compound at pH 7 at 1 mg after 24 hrs by HPLC analysis; assay type: physicochemical
[11] = Octanol-phosphate buffered saline partition coefficient, log D of compound at pH 7.4 at 1 mg after 24 hrs by HPLC analysis; assay type: physicochemical
[12] = Octanol-phosphate buffered saline partition coefficient, log D of compound at pH 7.6 at 1 mg after 24 hrs by HPLC analysis; assay type: physicochemical
in vitro [13] = details: human, liver microsomes; remark: listed apart in the source
in vitro [14] = details: human, liver microsomes; remark: listed apart in the source

Neuraminidase (Influenza A virus), sequence (B4URF0 as listed by the source): as the sequence (B4URF0 whole entry) above

| Structure (SMILES) | inhibition [1] [%] | inhibition [2] [%] | IC50 (Neuraminidase) [µM] | further results |
| --- | --- | --- | --- | --- |
| CCC(CC)O[C@@H]1C=C(C(=O)NCCCCc2ccccc2)C[C@H](N)[C@H]1NC(C)=O | 24.7 | 29.6 | – | – |
| C[C@]12CC[C@H]3[C@@H](CCC4=CC(=O)CC[C@@]43C)[C@@H]1CC[C@@H]2O [TESTOSTERONE] | – | – | – | remaining at 1 h, 1 µM (in vitro [3]): 5.2%; remaining at 0.5 h, 1 µM (in vitro [4]): 21.5%; remaining at 20 min, 1 µM (in vitro [5]): 37.8%; remaining at 10 min, 1 µM (in vitro [6]): 58.9%; remaining at 5 min, 1 µM (in vitro [7]): 64.8%; remaining at 1 h, 1 µM (in vitro [8]): 99.3% |
| CCC(CC)O[C@@H]1C=C(C(=O)N[C@@H](C(=O)O)C(C)(C)C)C[C@H](N)[C@H]1NC(C)=O | 58.3 | 91 | 1.3 | logD at 24 h [9]: -0.0458; logD at 24 h [10]: -0.167; logD at 24 h [11]: -0.116; logD at 24 h [12]: -0.209; half-life at 1 µM (in vitro [13]): > 145 min; remaining at 1 h, 1 µM (in vitro [3]): 84.1%; remaining at 0.5 h, 1 µM (in vitro [4]): 95.5%; remaining at 20 min, 1 µM (in vitro [5]): 106%; remaining at 10 min, 1 µM (in vitro [6]): 87.3%; remaining at 5 min, 1 µM (in vitro [7]): 111%; remaining at 1 h, 1 µM (in vitro [8]): 92.9%; CLint scaled at 1 µM (in vitro [14]): < 8.6 mL/min/kg; microsomal CLint at 1 µM (in vitro [14]): < 9.6 µL/min/mg |
| CCC(CC)O[C@@H]1C=C(C(=O)N[C@@H](C(=O)O)C2CC2)C[C@H](N)[C@H]1NC(C)=O | – | 85.7 | 46.4 | – |
| CCC(CC)O[C@@H]1C=C(C(=O)N[C@@H](CC(=O)OC)c2ccccc2)C[C@H](N)[C@H]1NC(C)=O | 26.5 | 56.7 | – | – |
| CCC(CC)O[C@@H]1C=C(C(=O)N[C@H](CC(C)C)C(=O)O)C[C@H](N)[C@H]1NC(C)=O | 38.9 | 84.4 | 6.55 | – |
| CCC(C)C[C@@H](NC(=O)C1=C[C@@H](OC(CC)CC)[C@H](NC(C)=O)[C@@H](N)C1)C(=O)OC (some centres not stated) | 23.6 | 50.5 | – | – |
| CCC(CC)O[C@@H]1C=C(C(=O)N[C@@H](C(=O)O)c2ccccc2)C[C@H](N)[C@H]1NC(C)=O | – | 8.3 | – | – |
| CCC(CC)O[C@@H]1C=C(C(=O)N[C@H](Cc2ccccc2)C(=O)O)C[C@H](N)[C@H]1NC(C)=O | 21.1 | 80.4 | 21.9 | – |
| CCC(CC)O[C@@H]1C=C(C(=O)N[C@H](CC(C)C)C(=O)OC)C[C@H](N)[C@H]1NC(C)=O | 13.1 | 41.7 | – | – |
| CCC(CC)O[C@@H]1C=C(C(=O)N[C@H](C)C(=O)O)C[C@H](N)[C@H]1NC(C)=O | 27.8 | 81.1 | 24.4 | – |
| CCC(CC)O[C@@H]1C=C(C(=O)NC2CC2)C[C@H](N)[C@H]1NC(C)=O | 5 | 55.3 | – | – |
| CCCC[C@@H](NC(=O)C1=C[C@@H](OC(CC)CC)[C@H](NC(C)=O)[C@@H](N)C1)C(=O)O | – | 85.5 | 30.7 | – |
| CCC(CC)O[C@@H]1C=C(C(=O)NCCCc2ccccc2)C[C@H](N)[C@H]1NC(C)=O | 13.5 | 19.3 | – | – |
| CCC(CC)O[C@@H]1C=C(C(=O)NCc2ccc(Cl)c(Cl)c2)C[C@H](N)[C@H]1NC(C)=O | – | 21.4 | – | – |
| CCC(CC)O[C@@H]1C=C(C(=O)N[C@@H](C(=O)O)C(C)C)C[C@H](N)[C@H]1NC(C)=O | 57.6 | 91.4 | 4.18 | – |
| CCC(CC)O[C@@H]1C=C(C(=O)N[C@H](Cc2ccccc2)C(=O)OC)C[C@H](N)[C@H]1NC(C)=O | 24.9 | 63.2 | – | – |
| O=C(O)Cc1ccccc1Nc1c(Cl)cccc1Cl [DICLOFENAC] | – | – | – | half-life at 1 µM (in vitro [13]): 11.6 min; CLint scaled at 1 µM (in vitro [14]): 108 mL/min/kg; microsomal CLint at 1 µM (in vitro [14]): 120 µL/min/mg |
